Assay results reported in paper PMC4982760, “Small-molecule inhibitors identify the RAD52-ssDNA interaction as critical for recovery from replication stress and for survival of BRCA2 deficient cells” (eLife, 2016).

How the values were obtained:
[1] = molecular target: T1, RAD52 (Homo sapiens, UniProt P43351); assay: WaterLOGSY NMR binding to RAD52; settings: 20-40 μM compound, 3.3 μM RAD52
T1 construct: made in house
T1 sequence (P43351 1-418): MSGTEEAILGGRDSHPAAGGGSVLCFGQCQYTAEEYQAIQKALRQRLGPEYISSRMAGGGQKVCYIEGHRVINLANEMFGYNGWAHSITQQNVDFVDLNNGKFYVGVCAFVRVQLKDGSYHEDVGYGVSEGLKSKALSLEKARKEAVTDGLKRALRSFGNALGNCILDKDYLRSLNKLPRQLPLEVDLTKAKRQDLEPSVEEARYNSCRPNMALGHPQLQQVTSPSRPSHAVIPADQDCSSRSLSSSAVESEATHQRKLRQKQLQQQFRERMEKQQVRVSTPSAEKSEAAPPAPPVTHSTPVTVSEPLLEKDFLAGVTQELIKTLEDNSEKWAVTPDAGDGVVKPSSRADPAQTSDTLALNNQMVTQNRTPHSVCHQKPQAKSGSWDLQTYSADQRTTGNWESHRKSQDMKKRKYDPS
Text: (§1) To confirm that the selected compounds bind RAD52, we employed water-ligand observation with gradient spectroscopy (WaterLOGSY), an NMR technique, which is based on transfer of magnetization from bulk water to the protein-bound compound of interest ([Dalvit et al., 2001], [2000]). In WaterLOGSY spectrum, if a compound binds to a protein, the compound will receive negative nuclear Overhauser effects (NOEs) due to the slow tumbling of the protein-compound complex, leading to a positive WaterLOGSY peak. […] Similarly, the binding of ‘6’to RAD52 is evident from the positive WaterLOGSY peaks that are clearly detected for this compound (Figure 3a).
(§2) Compound binding to RAD52 and RPA proteins was analyzed using water-ligand observation with gradient spectroscopy (WaterLOGSY) NMR experiments ([Dalvit et al., 2001], [2000]). The WaterLOGSY spectra of compounds in the presence of RAD52 or RPA were acquired using a water NOE mixing time of 1 s and a T2 relaxation filter of 50 ms just before data acquisition to suppress the broad signals derived from protein. The protein buffer used in the experiments contains 10 mM Tris-d11, 75 mM KCl, 0.25 mM EDTA, pH 7.5, and 10% D20. All NMR data were acquired on a Bruker Avance II 800 MHz NMR spectrometer equipped with a sensitive cryoprobe and recorded at 25°C. The ^1H chemical shifts were referenced to 2,2-dimethyl-2-silapentane-5-sulfonate (DSS). NMR spectra were processed using NMR Pipe ([Delaglio et al., 1995]) and analysed using NMR View ([Johnson and Blevins, 1994]).

[2] = molecular target: T2, RPA (Homo sapiens, UniProt P15927+P27694+P35244); assay: WaterLOGSY NMR binding to RPA; settings: 20-40 μM compound, 3.3 μM RPA
T2 construct: made in house
Text: as §1, §2

[3] = molecular target: T3, interaction between RAD52 and RPA proteins (Homo sapiens, UniProt P43351); assay: Ni-NTA pull-down of the RAD52-RPA interaction; format: binding; settings: 3 μM RAD52, 3 μM RPA, 3 μM compound
T3 construct: made in house

[4] = test system: MUS81; assay: Anaphase bridges in aphidicolin-treated cells (MUS81 activity); format: cell-based, human; settings: GM01604, 0.2 µM aphidicolin 24h, increasing concentration of compound
Protocol: Figure 5. Inhibiting the RAD52-ssDNA interaction interferes with RAD52/MUS81-mediated DSB formation essential for replication fork recovery in check point deficient cells. (a) Representative images showing fields of cells from the comet assay for untreated, as well as from UCN01 (300 nM) and HU (2 mM) treated cells in the presence and absence of ‘1’, ‘6’, and siRAD52. (b) ‘1’ and ‘6’ at 1 or 25 μM recapitulate RAD52 depletion. GM1604 cells, transfected or not with siRNAs against RAD52, were treated as indicated, in the presence or absence of the inhibitor. At the end of treatment, DSBs were analyzed by neutral comet assay. Data are presented as the mean ± SEM from two independent experiments; p values are shown in the graph when differences are statistically significant. (c–d) Inhibitors ‘1’ and ‘6’, respectively decrease the mean tail moment following HU treatment with IC50 values ranging from mid nanomolar to low micromolar. Cells were treated as in (b). Data are from three independent experiments. DOI: http://dx.doi.org/10.7554/eLife.14740.012 Figure 5—figure supplement 1. […] (a) GM01604 wild-type fibroblasts were transfected with CTRL or MUS81 siRNA. Forty eight hours after transfection the fibroblasts were lysed and analysed by WB with the indicated antibodies. […] (c) The presence of anaphase bridges, as shown in the representative images, was scored in DAPI-stained cells. […]

T2 sequence (P27694 whole entry): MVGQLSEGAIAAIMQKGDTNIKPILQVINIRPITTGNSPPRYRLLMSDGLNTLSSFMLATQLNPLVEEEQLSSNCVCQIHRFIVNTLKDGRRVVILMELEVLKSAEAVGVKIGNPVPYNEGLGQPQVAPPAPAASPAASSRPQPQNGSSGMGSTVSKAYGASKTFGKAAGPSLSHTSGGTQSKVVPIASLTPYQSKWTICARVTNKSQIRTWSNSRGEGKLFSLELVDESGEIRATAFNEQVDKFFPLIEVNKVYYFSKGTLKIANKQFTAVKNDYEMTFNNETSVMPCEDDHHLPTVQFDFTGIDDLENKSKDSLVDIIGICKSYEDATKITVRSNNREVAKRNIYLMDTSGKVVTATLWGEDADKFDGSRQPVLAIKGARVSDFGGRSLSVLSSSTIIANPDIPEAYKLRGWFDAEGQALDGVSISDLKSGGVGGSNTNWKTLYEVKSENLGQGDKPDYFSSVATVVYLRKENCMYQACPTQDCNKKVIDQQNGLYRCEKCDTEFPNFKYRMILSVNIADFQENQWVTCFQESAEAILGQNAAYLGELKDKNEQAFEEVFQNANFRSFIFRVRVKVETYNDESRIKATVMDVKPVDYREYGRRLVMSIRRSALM
T2 sequence (P15927 whole entry): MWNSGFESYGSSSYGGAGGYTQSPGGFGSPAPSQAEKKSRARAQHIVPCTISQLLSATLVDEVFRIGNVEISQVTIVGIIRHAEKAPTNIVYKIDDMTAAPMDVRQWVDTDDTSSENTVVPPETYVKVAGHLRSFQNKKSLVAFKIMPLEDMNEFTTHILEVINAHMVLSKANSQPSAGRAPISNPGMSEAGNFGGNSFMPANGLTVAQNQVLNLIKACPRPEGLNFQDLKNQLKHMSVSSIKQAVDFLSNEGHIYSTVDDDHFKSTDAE
T2 sequence (P35244 whole entry): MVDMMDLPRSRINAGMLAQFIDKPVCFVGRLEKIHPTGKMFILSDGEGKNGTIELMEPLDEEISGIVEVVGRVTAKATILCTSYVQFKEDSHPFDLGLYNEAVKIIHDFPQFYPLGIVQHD
T3 sequence (P27694 whole entry partner, one chain of several): as the sequence (P27694 whole entry) above
T3 sequence (P15927 whole entry partner, one chain of several): as the sequence (P15927 whole entry) above
T3 sequence (P35244 whole entry partner, one chain of several): as the sequence (P35244 whole entry) above

For `Oc1cc(O)c2c(c1)O[C@H](c1cc(O)c(O)c(O)c1)[C@H](O)C2` [Compound 1, (−)−Epigallocatechin], the “binding to RAD52 (WaterLOGSY)” value [1] was “physically interact with RAD52 protein”, the “binding to RPA (WaterLOGSY)” value [2] was “neither binds to RPA” and the “effect on the RAD52-RPA interaction” value [3] was “neither ‘1’ nor ‘6’ interfered with the interaction between the two proteins”. For the same compound, the “effect on MUS81 activity (anaphase bridges)” value [4] was “does not affect MUS81 activity”.
